Measured values taken from patent publication US6825232B2, “Use of hydroxyeicosatetraenoic acid compounds to treat ophthalmic inflammatory disorders” (Alcon, Inc., priority 2002, dated 2004).
Marks after values point to notes of the source that are not given here.

Columns and labels:
[1] = system: IL-6; experiment: IL-6 release from IL-1β-stimulated primary human corneal fibroblast cells (ELISA); format: cell-based; details: for % Inhibition of IL-6 (pg/μg dsDNA): 30 min pretreatment, 10 ng/ml IL-1β for 3 hours, normalized to dsDNA
Description: Primary human corneal fibroblast cells were obtained from one donor and grown to confluence in Ham's F-10 medium. Fibroblasts were transferred to serum-free media and were pretreated for 30 minutes with various concentrations of 15(S)-HETE. The cells were then stimulated with 10 ng/ml IL-1β for 3 hours and aliquots of the supernatants were assayed for IL-6 by ELISA. Data were normalized by the amount of double stranded DNA (dsDNA) extracted from the cells.

[2] = system: IL-8; details: 1 μM to 0.1 nM; human bone marrow stromal cells; cited from earlier work
[3] = system: IL-6; details: bone marrow stromal cells; cited from earlier work

CCCCC[C@H](O)/C=C/C=C\C/C=C\C/C=C\CCCC(=O)O [15(S)-HETE, 15-Hydroxyeicosatetraenoic acid]
% Inhibition of IL-6 (pg/μg dsDNA) ([1]; 15(S)-HETE 0.5 μg): 53.1% | % Inhibition of IL-6 (pg/μg dsDNA) ([1]; 15(S)-HETE 1 μg): 67.9* % | % Inhibition of IL-6 (pg/μg dsDNA) ([1]; 15(S)-HETE 2 μg): 88.6** % | % Inhibition of IL-6 (pg/μg dsDNA) ([1]; 15(S)-HETE 3 μg): 90.4** % | IC50 ([1]; primary human corneal fibroblast cells, IL-1β stimulated, read-out: IC50 for IL-6 inhibition): < 500 nM | effect on the spontaneous and serum-induced production of IL-8 [2]: no effect | effect on the spontaneous, serum- and cytokine-induced IL-6 synthesis [3]: no effect
